Like-named read-outs stand apart in the source and are kept apart here.
Experiments:
Format in all cases: in vivo
ABUTH = assay: Herbicidal activity, upland test, post-emergence; conditions: 1.250 kg/ha
Text: (§1) The sterilized sandy loam soil is filled in test pot having a surface area of 348 cm^2 for upland test conditions or 115 cm^2 for paddy test species were planted in furrows.
(§2) The pots for the post-emergent tests were placed in a greenhouse and watered for 9~14 days, then the foliage of test plants was sprayed with a solution of the test compound in a mixture of acetone and water containing a small amount of Tween 20.
(§3) After spraying the plants were kept for one day, then watered regularly for 14 to 21 days, and herbicidal activity data were recorded.
(§4) The herbicidal activity data were taken visually by percent control, wherein 0 signifies no herbicidal effect and 100 signifies complete kill.

BROJA = assay: Herbicidal activity, upland test, post-emergence
Text: as §1, §2, §3, §4

GOSHI = assay: Herbicidal activity, upland test, post-emergence
Text: as §1, §2, §3, §4

ORYSA [1] = assay: Herbicidal activity, upland test, post-emergence
Text: as §1, §2, §3, §4

PANDI = assay: Herbicidal activity, upland test, post-emergence
Text: as §1, §2, §3, §4

SOLNI = assay: Herbicidal activity, upland test, post-emergence
Text: as §1, §2, §3, §4

ECHOR = assay: Herbicidal activity for paddy test
How it was run: (§5)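 Visual percent-control rating: 0 = no herbicidal effect, 100 = complete kill. Plants grown in furrows, sterilized sandy loam, 115 cm^2 pots (paddy conditions).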

MOOVA = assay: Herbicidal activity for paddy test
How it was run: as §5

ORYSA [2] = assay: Herbicidal activity for paddy test; conditions: for plant injury at 2 g/ha: 0.002 kg/ha; for plant injury at 8 g/ha: 0.008 kg/ha; for plant injury at 31 g/ha: 0.031 kg/ha; for plant injury at 125 g/ha: 0.125 kg/ha; for plant injury at 500 g/ha: 0.500 kg/ha
How it was run: as §5

SAGPY = assay: Herbicidal activity for paddy test
How it was run: as §5

SCPJU = assay: Herbicidal activity for paddy test
How it was run: as §5

[3] = 3 Leaf, read-out: Herbicidal activity, ORYSA (3 Leaf)
[4] = seed, read-out: Herbicidal activity, ORYSA (seed)

For `CCON=C(CC)C1=C(O)CC(c2c(C)c(C)c3c(c2C)CC(C)(C)C3)CC1=O` (centres unmarked) [Compound 2], the “Herbicidal activity, ABUTH” value (ABUTH) was 0 % inhibition, the “Herbicidal activity, BROJA” value (BROJA; 0.004 kg/ha) was 0 % inhibition and the “Herbicidal activity, BROJA” value (BROJA; 0.016 kg/ha) was 0 % inhibition. The “Herbicidal activity, BROJA” value (BROJA; 0.063 kg/ha) was 60 % inhibition, the “Herbicidal activity, BROJA” value (BROJA; 1.000 kg/ha) was 100 % inhibition and the “Herbicidal activity, BROJA” value (BROJA; 1.250 kg/ha) was 100 % inhibition. The “Herbicidal activity, GOSHI” value (GOSHI; 0.004 kg/ha) was 0 % inhibition, the “Herbicidal activity, GOSHI” value (GOSHI; 0.016 kg/ha) was 0 % inhibition and the “Herbicidal activity, GOSHI” value (GOSHI; 0.063 kg/ha) was 40 % inhibition. The “Herbicidal activity, GOSHI” value (GOSHI; 1.000 kg/ha) was 70 % inhibition, the “Herbicidal activity, GOSHI” value (GOSHI; 1.250 kg/ha) was 50 % inhibition and the “Herbicidal activity, ORYSA” value (ORYSA [1]; 0.004 kg/ha) was 0 % inhibition. For the same compound, the “Herbicidal activity, ORYSA” value (ORYSA [1]; 0.016 kg/ha) was 20 % inhibition, the “Herbicidal activity, ORYSA” value (ORYSA [1]; 0.063 kg/ha) was 40 % inhibition and the “Herbicidal activity, ORYSA” value (ORYSA [1]; 1.000 kg/ha) was 100 % inhibition. For the same compound, the “Herbicidal activity, ORYSA” value (ORYSA [1]; 1.250 kg/ha) was 100 % inhibition, the “Herbicidal activity, PANDI” value (PANDI; 0.004 kg/ha) was 0 % inhibition and the “Herbicidal activity, PANDI” value (PANDI; 0.016 kg/ha) was 40 % inhibition. For the same compound, the “Herbicidal activity, PANDI” value (PANDI; 0.063 kg/ha) was 100 % inhibition, the “Herbicidal activity, PANDI” value (PANDI; 1.000 kg/ha) was 100 % inhibition and the “Herbicidal activity, PANDI” value (PANDI; 1.250 kg/ha) was 100 % inhibition. For the same compound, the “Herbicidal activity, SOLNI” value (SOLNI; 0.004 kg/ha) was 0 % inhibition, the “Herbicidal activity, SOLNI” value (SOLNI; 0.016 kg/ha) was 0 % inhibition and the “Herbicidal activity, SOLNI” value (SOLNI; 0.063 kg/ha) was 0 % inhibition. The “Herbicidal activity, SOLNI” value (SOLNI; 1.000 kg/ha) was 0 % inhibition, the “Herbicidal activity, SOLNI” value (SOLNI; 1.250 kg/ha) was 0 % inhibition and the pest or weed control at 2 g/ha (ECHOR; 0.002 kg/ha) was 60%. For the same compound, the pest or weed control at 8 g/ha (ECHOR; 0.008 kg/ha) was 100%, the pest or weed control at 31 g/ha (ECHOR; 0.031 kg/ha) was 100% and the pest or weed control at 125 g/ha (ECHOR; 0.125 kg/ha) was 100%. The pest or weed control at 500 g/ha (ECHOR; 0.500 kg/ha) was 100%, the pest or weed control at 2 g/ha (MOOVA; 0.002 kg/ha) was 0% and the pest or weed control at 8 g/ha (MOOVA; 0.008 kg/ha) was 0%. For the same compound, the pest or weed control at 31 g/ha (MOOVA; 0.031 kg/ha) was 0%, the pest or weed control at 125 g/ha (MOOVA; 0.125 kg/ha) was 0% and the pest or weed control at 500 g/ha (MOOVA; 0.500 kg/ha) was 0%. The plant injury at 2 g/ha (ORYSA [2]; [3]) was 0%, the plant injury at 8 g/ha (ORYSA [2]; [3]) was 0% and the plant injury at 31 g/ha (ORYSA [2]; [3]) was 0%. The plant injury at 125 g/ha (ORYSA [2]; [3]) was 60%, the plant injury at 500 g/ha (ORYSA [2]; [3]) was 100% and the plant injury at 2 g/ha (ORYSA [2]; [4]) was 30%. The plant injury at 8 g/ha (ORYSA [2]; [4]) was 80%, the plant injury at 31 g/ha (ORYSA [2]; [4]) was 100% and the plant injury at 125 g/ha (ORYSA [2]; [4]) was 100%. For the same compound, the plant injury at 500 g/ha (ORYSA [2]; [4]) was 100%, the pest or weed control at 2 g/ha (SAGPY; 0.002 kg/ha) was 0% and the pest or weed control at 8 g/ha (SAGPY; 0.008 kg/ha) was 0%. It also gave a pest or weed control at 31 g/ha (SAGPY; 0.031 kg/ha) of 0%, a pest or weed control at 125 g/ha (SAGPY; 0.125 kg/ha) of 0% and a pest or weed control at 500 g/ha (SAGPY; 0.500 kg/ha) of 0%. For the same compound, the pest or weed control at 2 g/ha (SCPJU; 0.002 kg/ha) was 0%, the pest or weed control at 8 g/ha (SCPJU; 0.008 kg/ha) was 0% and the pest or weed control at 31 g/ha (SCPJU; 0.031 kg/ha) was 0%. It also gave a pest or weed control at 125 g/ha (SCPJU; 0.125 kg/ha) of 0% and a pest or weed control at 500 g/ha (SCPJU; 0.500 kg/ha) of 0%.

— US6096930A, “Herbicidal cyclohexane-1,3-dione derivatives and their preparation process” (Korea Research Institute of Chemical Technology, priority 1994, dated 2000)
